Experimental findings from patent US4253998A, “Peptides related to somatostatin” (American Home Products Corporation, priority 1979, dated 1981) are described below.

Type in all cases: in vivo, rat
The subject of assay [1] is growth hormone (GH). Description: Inhibition of growth hormone secretion in arginine-treated, pentobarbital-anesthetized rats (radioimmunoassay). The protocol: (§1) Male albino rats are divided into two groups (e.g. nine rats per group). Each animal is administered sodium pentobarbital (Nembutal), I. P., at a dose of 50 mg/kg. Fifteen minutes later, one group received a S. C. injection of the test compound in saline (typically 5 to 200 μg/kg.), and the other group (control) receives saline alone. Ten minutes later, each animal is given a 0.5 ml. injection of arginine (300 mg/ml., pH 7.2) into the heart. Five minutes after receipt of the arginine, the animals are decapitated and blood is collected into Trasylol-EDTA. An appropriate aliquot of each sample is assayed for GH, glucagon, and insulin by radioimmunossay. GH is determined by the method of Sinha et al., Endocrinol., 91, 784 (1972); glucagon is determined by the method of Caloona and Unger, "Methods of Hormone Radioimmunoassay," Jaffe et al., Ed., Academic Press, New York, 1974, pages 317-330; and insulin is determined by the method of Hales and Randle, Biochem. J., 88, 137 (1963). The blood concentrations of growth hormone, glucagon, and insulin for the animals given the test compound are compared by standard statistical methods to the blood concentrations for the control group.

In another assay the test system is insulin. Description: Inhibition of insulin secretion in arginine-treated, pentobarbital-anesthetized rats (radioimmunoassay). On the procedure:
as §1

For the next assay, the system named is glucagon. Description: Inhibition of glucagon secretion in arginine-treated, pentobarbital-anesthetized rats (radioimmunoassay). On the procedure:
as §1

The test system of assay [2] is growth hormone (GH). Description: Prolonged inhibition of growth hormone in rats (plasma GH 2 to 6 hours after S.C. injection). The following applies: for Plasma GH: 1000 μg/kg S.C. The protocol: Albino male rats are arranged in two groups (nine rats per group). One group received a subcutaneous (S. C.) injection of the test compound (typically 1 mg/kg.) in saline, and the other group received a S. C. injection of saline alone (control). […] P. injection of sodium pentobarbital, 50 mg/kg. At the end of the experiment, blood samples are taken from each animal by cardiac puncture, and each sample is mixed with Trasylol-EDTA. An aliquot of each sample is assayed for GH by radioimmunoassay. The blood growth hormone concentrations for the animals receiving the test compound are compared by standard statistical methods to the growth hormone concentrations for the control animals. Compounds considered long-acting product a significant decrease in blood growth hormone concentration at a dose of 1 mg/kg. at least two hours after injection.

Counter-ions that a name gives are not always drawn. Bridge positions count the residues as written; N and C are the ends. Square brackets hold non-standard residues; d marks the D form. Peptide text beside a SMILES is read from it.

`C[C@@H](O)[C@@H]1NC(=O)[C@H](CCCCN)NC(=O)[C@@H](Cc2c[nH]c3ccccc23)NC(=O)[C@H](Cc2ccccc2)NC(=O)[C@H](Cc2ccccc2)NC(=O)[C@H](Cc2c[nH]cn2)NC(=O)[C@H](CCCNC(=N)N)NC(=O)[C@@H](N)CSSC[C@@H](C(=O)O)NC(=O)[C@@H](Cc2ccc(O)cc2)NC(=O)[C@H]([C@@H](C)O)NC(=O)[C@H](Cc2ccccc2)NC1=O` [Example 2, L-Cysteinyl-L-Arginyl-L-Histidyl-L-Phenylalanyl-L-Phenylalanyl-D-Tryptophyl-L-Lysyl-L-Threonyl-L-Phenylalanyl-L-Threonyl-D-Tyrosyl-L-Cysteine Cyclic (1→12) Disulfide] (H-CRHFF[dW]KTFT[dY]C-OH; disulfide 1-12): the GH in the assay on growth hormone (GH) [1] (Exp. A, 100 μg/kg S.C., blood 15 min after dose, 5 min after arginine, control 508 ± 13, p < 0.05) was 181 ± 47 ng/mL; in the assay on growth hormone (GH) [1] (Exp. B, 400 μg/kg S.C., control 234 ± 36, p < 0.01), 67 ± 13 ng/mL. Moreover, the Insulin in the assay with insulin (Exp. A, 100 μg/kg S.C., control 298 ± 33, p < 0.05) was determined as 154 ± 39 μU/ml; in the assay on insulin (Exp. B, 400 μg/kg S.C., control 187 ± 21, p < 0.01), 70 ± 23 μU/ml. For the same compound, the Glucagon in the assay on glucagon (Exp. A, 100 μg/kg S.C., control 61 ± 8, p < 0.01) stood at 22 ± 7 pg/mL; with glucagon (Exp. B, 400 μg/kg S.C., control 41 ± 5, p < 0.01), 9 ± 1 pg/mL. For the same compound, the “Plasma GH” value was found to be 89 ± 5 ng/mL with growth hormone (GH) [2] (Exp. C, 2 hours, control 213 ± 14, p < 0.001); 101 ± 13 ng/mL with growth hormone (GH) [2] (Exp. C, 4 hours, control 182 ± 12, p < 0.001); 230 ± 31 ng/mL with growth hormone (GH) [2] (Exp. D, 5 hours, control 337 ± 36, p < 0.05); 172 ± 34 ng/mL in the assay on growth hormone (GH) [2] (Exp. D, 6 hours, control 234 ± 24, not significant). The “Prolonged inhibition of growth hormone / period of action (in words)” value with growth hormone (GH) [2] (rat, in vivo) was “shows prolonged inhibition of growth hormone”.
For `C[C@@H](O)[C@@H]1NC(=O)[C@H](CCCCN)NC(=O)[C@@H](Cc2c[nH]c3ccccc23)NC(=O)[C@H](Cc2ccccc2)NC(=O)[C@H](Cc2ccccc2)NC(=O)[C@H](CCC(=O)O)NC(=O)[C@H](CCCNC(=N)N)NC(=O)[C@@H](N)CSSC[C@@H](C(=O)O)NC(=O)[C@@H](Cc2ccc(O)cc2)NC(=O)[C@H]([C@@H](C)O)NC(=O)[C@H](Cc2ccccc2)NC1=O` [Example 4, L-Cysteinyl-L-Arginyl-L-α-Glutamyl-L-Phenylalanyl-L-Phenylalanyl-D-Tryptophyl-L-Lysyl-L-Threonyl-L-Phenylalanyl-L-Threonyl-D-Tyrosyl-L-Cysteine Cyclic (1→12) Disulfide Triacetate Salt] (H-CREFF[dW]KTFT[dY]C-OH; disulfide 1-12), the GH in the assay on growth hormone (GH) [1] (Exp. E, 200 μg/kg S.C., control 354 ± 57, p < 0.01) worked out at 81 ± 6 ng/mL. In the assay on insulin (Exp. E, 200 μg/kg S.C., control 336 ± 31, p < 0.01), the Insulin came to 128 ± 33 μU/ml. Also, the Glucagon with glucagon (Exp. E, 200 μg/kg S.C., control 62 ± 10, not significant) was 41 ± 14 pg/mL.
`C[C@@H](O)[C@@H]1NC(=O)[C@H](CCCCN)NC(=O)[C@@H](Cc2c[nH]c3ccccc23)NC(=O)[C@H](Cc2ccccc2)NC(=O)[C@H](Cc2ccccc2)NC(=O)[C@H](Cc2c[nH]cn2)NC(=O)[C@H](Cc2c[nH]cn2)NC(=O)[C@@H](N)CSSC[C@@H](C(=O)O)NC(=O)[C@@H](CO)NC(=O)[C@H]([C@@H](C)O)NC(=O)[C@H](Cc2ccccc2)NC1=O` [Example 6, L-Cysteinyl-L-Histidyl-L-Histidyl-L-Phenylalanyl-L-Phenylalanyl-D-Tryptophyl-L-Lysyl-L-Threonyl-L-Phenylalanyl-L-Threonyl-D-Seryl-L-Cysteine Cyclic (1→12) Disulfide Triacetate Salt] (H-CHHFF[dW]KTFT[dS]C-OH; disulfide 1-12) returned a GH in the assay with growth hormone (GH) [1] (Exp. F, 100 μg/kg S.C., control 363 ± 74, p < 0.01) of 83 ± 16 ng/mL. The compound further displayed an Insulin in the assay on insulin (Exp. F, 100 μg/kg S.C., control 75 ± 8, not significant) of 60 ± 10 μU/ml. The compound further came in with a Glucagon in the assay with glucagon (Exp. F, 100 μg/kg S.C., control 162 ± 29, p < 0.01) of 55 ± 12 pg/mL.
